Reference: patent US4963570A, “1-(acetylaminophenyl)-2-aminopropanone derivatives and pharmaceutical compositions thereof” (Laboratoire L. Lafon, priority 1983, dated 1990)
“Also recorded” adds a separate entry of the source. Where a name gives a salt, the structure may show the parent alone.

Tests used:
[1] = pH of the aqueous solution as a function of concentration; type: physicochemical
Protocol: The neuropsychopharmacological study of CRL 41 242 was carried out according to the procedures described above for CRL 41 224, except that the pH of the aqueous solution of CRL 41 242 to be injected intraperitoneally varies as a function of the concentration in the manner indicated in Table III below.

[2] = tested on: mice; test: action on the intergroup aggression; type: in vivo, mouse; conditions: i.p.
Protocol: After they have stayed for 3 weeks in the 2 halves of a cage divided by an opaque partition, groups of 3 mice receive CRL 41 224. Half an hour later, the two groups from the same cage are brought together by removal of the partition, and the number of fights which occur in 10 minutes is noted. Half the test is performed on ordinary mice (NMRI, C.E.R. January) and half on NMRI (Iffa Credo) mice.

[3] = tested on: mice; test: overall behavior and reactivities in mice; type: in vivo, mouse; conditions: i.p.
Protocol: (§1) Groups of three animals are observed before and then 0.25 hour, 0.50 hour, 1 hour, 2 hours, 3 hours and 24 hours after the administration of CRL 41 224.

[4] = tested on: CNS; test: overall neuropsychopharmacological (CNS) profile; type: in vivo, mouse; rat; conditions: i.p.
Protocol: The neuropsychopharmacological study of CRL 41 219 was carried out as indicated above for CRL 41 224.
The neuropsychopharmacological study of CRL 41 220 was carried out in accordance with the procedures given above for CRL 41 224.

[5] = tested on: mice; test: interaction with barbital; type: in vivo, mouse; conditions: i.p.
Protocol: Half an hour after the administration of CRL 41 224, groups of 10 mice receive an intraperitoneal injection of barbital (220 mg/kg).

[6] = tested on: mice; test: action on the behavioral despair; type: in vivo, mouse; conditions: i.p.
Excerpt: Half an hour after they have received CRL 41 224, groups of 6 mice are placed in a beaker filled with water to a height of 6 cm. The total period of immobility between the 2nd and 6th minutes following immersion is noted.

[7] = tested on: male mice; test: acute toxicity, intraperitoneal (lethal doses); type: in vivo, mouse; conditions: i.p.
Protocol: By intraperitoneal administration to male mice, the LD-30 (lethal dose for 30% of the animals tested) is of the order of 128 mg/kg and the LD-50 is of the order of about 200 mg/kg.

[8] = tested on: rats; test: overall behavior and reactivities in rats; type: in vivo, rat; conditions: i.p.
Protocol: as §1

[9] = tested on: immunological properties; test: immunological properties, overall; type: in vivo; conditions: dose not stated; dihydrochloride
Excerpt: The present 1-(acetylaminophenyl)-2-aminopropanone derivatives are useful in therapy. They all act on the CNS, more precisely as antidepressants. They have a stimulant or excitant component in their neuropsychopharmacological profile.

[10] = tested on: mice; test: interaction with oxotremorine; type: in vivo, mouse
Protocol: CRL 41 224 is administered to groups of 6 mice 0.5 hour before the intraperitoneal injection of 0.5 mg/kg of oxotremorine.

[11] = tested on: mice; test: asphyxiant anoxia (gallamine triiodoethylate); type: in vivo, mouse; conditions: i.p.
Protocol: Groups of 10 mice receive CRL 41 224 half an hour before the intraperitoneal administration of 32 mg/kg of gallamine triiodoethylate (reference curarizing agent).

[12] = tested on: mice; test: four plate test, traction and electric shock; type: in vivo, mouse; conditions: mice, i.p.
Protocol: The test is performed on groups of 10 mice 30 minutes after the administration of CRL 41 224.

[13] = tested on: mice; test: action on the spontaneous motility (actimeter); type: in vivo, mouse; conditions: mice, i.p.
Protocol: 0.5 hour after they have received CRL 41 224, the mice (6 per dose, 12 control animals) are placed in an actimeter, where their motility is recorded for 30 minutes.

[14] = tested on: peripheral α-adrenergic stimulation; test: signs of peripheral adrenergic stimulation; type: in vivo, mouse; rat; conditions: i.p.; dose not stated
Protocol: as §1

[15] = tested on: mice; test: interaction with apomorphine in mice; type: in vivo, mouse; conditions: mice, i.p., 8, 32 and 128 mg/kg; apomorphine 1 or 16 mg/kg s.c.
Protocol: Groups of 6 mice receive CRL 41 224 0.5 hour before the subcutaneous injection of 1 or 16 mg/kg of apomorphine.

[16] = tested on: mice; test: motility reduced by hypoxic aggression; type: in vivo, mouse; conditions: i.p., 8, 32 and especially 128 mg/kg
Protocol: Half an hour after they have received CRL 41 224, the mice (10 per dose, 20 control animals) are subjected to acute hypobaric anoxia [pressure reduction of 600 mm Hg (i.e. about 8×10^4 Pa) in 90 seconds; release of vacuum in 45 seconds] and are then placed in an actimeter, where their motility is recorded for 10 minutes.

[17] = tested on: mice; test: motility reduced by habituation to the enclosure; type: in vivo, mouse; conditions: i.p., 32 and 128 mg/kg
Protocol: After they have stayed in the actimeters for 18 hours, the mice (6 per dose, 12 control animals) receive CRL 41 224. They are immediately returned to their respective enclosures and, half an hour later, their motility is recorded for 30 minutes.

[18] = tested on: rats; test: interaction with amphetamine; type: in vivo, rat; conditions: rats, i.p., 16 and especially 64 mg/kg; amphetamine 2 mg/kg i.p.
Protocol: Amphetamine (2 mg/kg) is injected intraperitoneally into groups of 6 rats 30 minutes after the administration of CRL 41 224.

[19] = tested on: rats; test: interaction with apomorphine in rats; type: in vivo, rat; conditions: i.p., 16 and especially 64 mg/kg, apomorphine 0.5 mg/kg s.c.
Protocol: CRL 41 224 is administered to groups of 6 rats 0.5 hour before the subcutaneous injection of 0.5 mg/kg of apomorphine.

[20] = tested on: mice; test: interaction with reserpine; type: in vivo, mouse; conditions: mice, i.p.
Protocol: Four hours after the intraperitoneal injection of 2.5 mg/kg of reserpine, groups of 6 mice receive CRL 41 224.

CC(=O)Nc1ccc(C(=O)C(C)N2CCN(C)CC2)cc1 (centres unmarked) [CRL 41 242, 1-(4-acetylaminophenyl)-2-(4-methylpiperazino)-propanone dihydrochloride]
pH of the aqueous solution ([1]; 0.2 g/liter): 5.0
pH of the aqueous solution ([1]; 0.4 g/liter): 4.5
pH of the aqueous solution ([1]; 0.8 g/liter): 4.0
pH of the aqueous solution ([1]; 2 g/liter): 3.5
pH of the aqueous solution ([1]; 13 g/liter): 3.0
pH of the aqueous solution ([1]; 50 g/liter): 2.5
pH of the aqueous solution ([1]; ≤0.05 g/liter): 5.5
intergroup aggression ([2]; high doses): a reduction in the intergroup aggression
reactivities ([3]; high doses): decrease in the reactivities
body temperature (hypothermia) ([3]; strong/high doses): hypothermia in mice
sedation ([3]; mice, high doses): sedation in mice
overall action on the CNS ([4]; strong/high doses, dihydrochloride): sedative effects; also recorded: antidepressant effects
effects of the stimulant type ([4]; weak doses): very discreet effects of the stimulant type
duration of the sleep induced by barbital ([5]; strong/high doses): an increase in the duration of the sleep induced by barbital
period of immobility of mice forcibly immersed ([6]; strong/high doses): a slight reduction in the period of immobility
LD-0 (maximum non-lethal dose) [7]: greater than 256 mg/kg
LD-60 [7]: about 500 mg/kg
sedation ([8]; high doses): sedation in mice and rats
immunological properties, overall [9]: beneficial immunomodulating effects; also recorded: particularly valuable as an immunostimulant substance
hypothermia induced by oxotremorine ([10]; i.p., strong/high doses): very moderate antagonism of the hypothermia induced by oxotremorine
time taken for asphyxiant convulsions (and death) to occur ([11]; high dose): an increase in the time taken for convulsions and death to occur following asphyxiant anoxia
number of punished passes in the four plate test ([12]; high doses): a decrease in the spontaneous motility and the number of punished passes
spontaneous motility ([13]; high doses): a decrease in the spontaneous motility

CCNC(C)C(=O)c1ccc(NC(C)=O)cc1 (centres unmarked) [CRL 41 224, 1-(4-acetylaminophenyl)-2-ethylaminopropanone hydrochloride]
peripheral adrenergic stimulation, overall [14]: peripheral α-adrenergic stimulant effects
hypothermia induced by apomorphine [15]: opposes the hypothermia induced by apomorphine
righting behavior and stereotypy behavior (apomorphine) [15]: without modifying the righting behavior and stereotypy behavior
motor recovery after acute hypobaric anoxia [16]: distinct improvement in the motor recovery
number of fights ([2]; 128 mg/kg): reduces the number of fights
excitation, duration ([3]; mice, 32 mg/kg): 3 h
excitation, duration ([3]; mice, 128 mg/kg): 3 h
hyperthermia, temperature change ([3]; mice, 128 mg/kg): +0.9 °C
increase in the reactivity to touch and muscular tonus, duration ([3]; mice, 128 mg/kg): 24 h
moderate mydriasis, duration ([3]; mice, 128 mg/kg): 3 h
forms of behavior, reactivities and variations in pupil diameter and rectal temperature ([3]; mice, 2 and 8 mg/kg): substantially comparable to those of the control group
overall action on the CNS ([4]; mice and rats, dose not stated, hydrochloride): antidepressant effects; also recorded: stimulant effects; also recorded: behaves as an antidepressant for the CNS
antagonism of the sleep induced by barbital ([5]; mice, 32 mg/kg): total antagonism
duration of the sleep induced by barbital ([5]; mice, as from 2 mg/kg, barbital 220 mg/kg i.p.): reduces the duration of the sleep induced by barbital
period of immobility (forcibly immersed mice) ([6]; 8 and especially 32, 128 mg/kg): reduces the period of immobility
motor activity of mice accustomed to their enclosure [17]: distinct resumption in the motor activity
mydriasis ([8]; 1 mg/kg): brief mydriasis
mydriasis, time of appearance after administration ([8]; 1 mg/kg): 0.5 h
mydriasis, duration ([8]; 4 mg/kg): 2 h
mydriasis, duration ([8]; 16 mg/kg): 3 h
stereotypies, duration ([8]; 16 mg/kg): 3 h
excitation, duration ([8]; 64 mg/kg): 1 h
hyperthermia, duration ([8]; 64 mg/kg): 3 h
hyperthermia, temperature change ([8]; 64 mg/kg): +1.5 °C
increase in the reactivity to touch and muscular tonus, duration ([8]; 64 mg/kg): 3 h
mydriasis, duration ([8]; 64 mg/kg): 3 h
piloerection, duration ([8]; 64 mg/kg): 1 h
stereotypies, duration ([8]; 64 mg/kg): 3 h
stereotypies induced by amphetamine [18]: potentiation of the stereotypies induced by amphetamine
signs of peripheral cholinergic stimulation induced by oxotremorine ([10]; mice, i.p.): does not modify the signs of peripheral cholinergic stimulation
hypothermic action of oxotremorine ([10]; mice, i.p., 2, 8 and especially 32, 128 mg/kg, oxotremorine 0.5 mg/kg i.p.): opposes the hypothermic action of oxotremorine
trembling induced by oxotremorine ([10]; mice, i.p., 8, 32 and especially 128 mg/kg): distinctly reduces the intensity of the trembling induced by oxotremorine
time taken for convulsions and death to occur following asphyxiant anoxia ([11]; mice, gallamine triiodoethylate 32 mg/kg i.p.): does not change the time taken for convulsions and death to occur
stereotypies induced by apomorphine [19]: potentiation of the stereotypies induced by apomorphine
ptosis induced by reserpine ([20]; 128 mg/kg): reduces the intensity of the ptosis induced by reserpine
significance of the antagonism of hypothermia induced by reserpine ([20]; 32 and 128 mg/kg): significant
hypothermia induced by reserpine ([20]; as from 2 mg/kg, reserpine 2.5 mg/kg i.p.): opposes the hypothermia induced by reserpine
convulsant effects of electric shock ([12]; 128 mg/kg): does not aggravate the convulsant effects
lethal effects of electric shock ([12]; 128 mg/kg): does not modify the lethal effects of electric shock
motor incapacity (traction) ([12]; 128 mg/kg): does not cause major motor incapacity
number of punished passes (four plate test) ([12]; 128 mg/kg): increase in the number of punished passes
spontaneous motor activity ([13]; 8 and especially 32, 128 mg/kg): increases the spontaneous motor activity
